Here are results for 4 compounds from patent US11155821B2, “Compositions and methods for tagging ribonucleic acids” (The Regents of the University of Colorado, a body corporate, priority 2018, dated 2021).

Data set [1] deals with Cbl riboswitch RNA variant A (wild type env8). Nature of the data set: Isothermal titration calorimetry (ITC), aptamer A. To be noted: ITC at 25° C., RNA buffer; mean of 3 independent experiments +/- STDEV. Format: binding. As for the experimental part: (§1) ITC experiments were performed using protocols previously established and described [reference 30, 31]. Briefly, the RNA was dialyzed overnight at 4° C. into RNA buffer (100 mM KCl, 10 mM NaCl, 1 mM MgCl2, 50 mM HEPES, pH 8.0) using 6-8000 Dalton molecular weight cutoff dialysis tubing (Spectra/Por). The dialysis buffer was used to dissolve Cbl and Cbl-5xPEG-ATTO590, and to dilute RNA To the desired concentration. Titrations were performed at 25° C. using a MicroCal ITC 200 microcalorimeter (GE Healthcare) and data were fit using the Origin software suite as previously described [reference 61].

Data set [2] concerns the target truncated Cbl riboswitch RNA variant AT. Nature of the data set: Isothermal titration calorimetry (ITC), aptamer AT. Format: binding. The conditions noted are these: ITC at 25° C., RNA buffer; mean of 3 independent experiments +/- STDEV. As for the experimental part:
as §1

The target in data set [3] is Cbl riboswitch RNA variant D. Nature of the data set: Isothermal titration calorimetry (ITC), aptamer D. The conditions noted are these: ITC at 25° C., RNA buffer; mean of 3 independent experiments +/- STDEV. It is filed as binding. The method, then:
as §1

In data set [4] the test system is RNA AT,MUT (four point mutations in the Cbl-binding site). The experiment in a line: In vitro fluorescence turn-on, plate reader, aptamer AT,MUT. To be noted: probe 0.25 or 0.5 μM, RNA at least 5 μM. It is filed as biochemical. The method, then: (§2) The concentration of Cbl-fluorophore probes, free fluorophores and free Cbl was determined using extinction coefficients listed in Table 1B. In vitro experiments were conducted in RNA buffer (100 mM KCl, 10 mM NaCl, 1 mM MgCl2, 50 mM HEPES, pH 8.0). For the Cbl-fluorophore probes, the extinction coefficient of the fluorophores was used to determine the concentration. […] The fluorescence intensity of each probe was measured in the presence or absence of RNA in RNA buffer as technical triplicates in a Tecan Safire-II fluorescence plate. […] Samples were incubated for at least 20 minutes (min) at room temperature in the dark to allow for Cbl-binding of the RNA prior to data collection. The excitation wavelength for each probe is listed in Table 1B and the emission spectrum was collected in 1 nm increments for the range listed in Table 1B. Each emission spectrum was buffer subtracted, integrated and normalized to the signal of the free fluorophore at the same concentration. Resulting % fluorescence measurements were reproducible for measurements on different days.

The test system of a further data set is RNA AT. Nature of the data set: In vitro fluorescence turn-on, plate reader, aptamer AT. Format: biochemical. The conditions noted are these: probe 0.25 or 0.5 μM, RNA at least 5 μM. The method, then:
as §2

The subject of a further data set is Broccoli. Nature of the data set: Photobleaching of RNA/probe complexes, constant illumination, Broccoli. The conditions noted are these: bound to Broccoli, within a second. Format: physicochemical. As for the experimental part: For photobleaching experiments, indicated probes and RNA (Table 10) were mixed before about 3 to 4× of microscope immersion oil (Olympus immersion oil type-F) was added and the solution was emulsified to generate droplets. Samples were prepared in RNA buffer for Cbl-fluorophore samples (100 mM KCl, 10 mM NaCl, 1 mM MgCl2, 50 mM HEPES, pH 8.0) and in Broccoli buffer (40 mM HEPES pH 7.4, 100 mM KCl, 1 mM MgCl2) for the DFHBI-1T/Broccoli sample. The droplets were sandwiched between a glass slide and a coverslip. The sample was placed on the sample stage of a Nikon Ti-E HCA widefield fluorescence microscope with the coverslip facing a 20× objective lens. Photostability was assessed in part by fixing the excitation rate, i.e. the number of absorbed excitation photons were the same for Cbl-fluorophore/RNA samples and the DFHBI-1T/Broccoli sample. The high irradiance for the DFHBI-1T Broccoli sample is a result of its low extinction coefficient. Images were acquired every 50 ms for DFHBI-1T/Broccoli and every 250 ms for others for 3 seconds, then every second for 47 seconds or longer, and the exposure time of each image was 15 ms for DFHBI-1T/Broccoli and 40 ms for others. A total of 6 to 15 droplets were analyzed for each sample.

In another data set the test system is ACTB-(2xdBroccoli) mRNA. The experiment in a line: Stress granule (SG) assay, live U2-OS Halo-G3BP1 cells, Broccoli tag. Format: cell-based, Homo sapiens. The conditions noted are these: arsenite. The method, then:
U2-OS cells stably producing GFP-G3BP1 or genomically producing Halo-G3BP1 were seeded at 0.25×10^6 cells in imaging dishes. One day after seeding, cells were chemically transfected with typically 2-μg plasmid DNA (1 μg of the ACTB plasmid fused with an RNA tag of interest mixed with 1 μg of the transfection marker pNLS-TagBFP (in pcDNA)) using the TransIT transfection system following manufacturer recommendations (Mirus). On the next day, cells were stained and bead loaded with the Cbl-fluorophore probe as described above. The media that was added after bead loading contained 0.5 mM sodium arsenite and cells were incubated at 37° C./5% CO 2 for 30-45 min to induce stress granules. Cells were rinsed once in PBS and Fluorobrite media (Gibco), supplemented with 0.5 mM sodium arsenite, was added for live cell imaging. For correlative live/fixed imaging where cells were first imaged live, followed by fixation and FISH/immunofluorescence imaging of the same cells, the following modifications were made to the protocol above. Instead of home-made imaging dishes, gridded imaging dishes (MatTek) were used. Dishes were coated with 1 μg/mL fibronectin (Sigma) for 4 hours and fibronectin was rinsed once with full media before cells were seeded. Because plasmid ACTB-(AT) 4x was used, a higher concentration of Cbl-5xPEG-ATTO590 was bead loaded (3 μL of 50 μM probe).
For live imaging of SGs tagged with 2xdBroccoli in U2-OS cells, the pinhole was 67.7 μm and the laser settings were as follows. For the DAPI channel, the laser was set at 5.0 (HV=110), for the GFP channel the laser was set at 1.0 (HV=110), for the TRITC channel the laser was set at 1.0 (HV=40). For live imaging of SGs tagged with MS2 stem-loop repeats in U2-OS cells, the pinhole was 67.7 μm and the laser settings were as follows. For the DAPI channel, the laser was set at 5.0 (HV=110), for the GFP channel the laser was adjusted for optimal contrast without detector saturation (approximately 1.0-2.5) (HV approximately 60-100), for the TRITC channel the laser was set at 0.9 (HV=40).

Data set [5] has as its system SM-KDM5B translation reporter tagged with 12 copies of Riboglow. Nature of the data set: Translation assay, live U2-OS cells. Format: cell-based. The method, then: U2-OS cells seeded on home-made imaging dishes as described above were bead loaded with a mix of 1 μg plasmid DNA encoding for the SM-KDM5B translation reporter, 3 μL of a 5 μM stock of the Cbl-fluorophore probe Cbl-4xGly-ATTO 590 and 1 μL of Alexa488-labeled Fab to bind N-terminal FLAG tags in the reporter. After 6-8 hours, cells were washed 3 times with PBS, and medium was replaced with FluoroBrite medium (Gibco). Imaging was performed under HILO conditions [reference 49] at 37° C. and 5% CO2 using an Andor Ixon Ultra DU897U-C50 EMCCD camera. When indicated, puromycin was added during the image acquisition at a final concentration of 50 μg/mL.

Structures are written as SMILES.

As for `C/C1=C2/N[C@H]([C@H](CC(N)=O)[C@@]2(C)CCC(=O)NC[C@@H](C)OP(=O)(O)O[C@H]2[C@@H](O)[C@@H](n3cnc4cc(C)c(C)cc43)O[C@@H]2CO)[C@]2(C)N=C(/C(C)=C3N=C(/C=C4N=C1[C@@H](CCC(N)=O)C\4(C)C)[C@@H](CCC(N)=O)[C@]\3(C)CC(N)=O)[C@@H](CCC(N)=O)[C@]2(C)CC(N)=O.[Co]` [Cbl, cobalamin], the equilibrium dissociation constant (Kd) in data set [1] was found to be 37 ± 1 nM; in data set [2] it was 290 nM; in data set [3], 2.2 ± 1.6 nM.

Consider `C/C1=C2/[N-][C@H]([C@H](CC(N)=O)[C@@]2(C)CCC(=O)NC[C@@H](C)OP(=O)([O-])O[C@H]2[C@@H](O)[C@@H](n3cnc4cc(C)c(C)cc43)O[C@@H]2Cn2cc(CNC(=O)c3ccc4c(c3)C3(OC4=O)c4ccc(O)cc4Oc4cc(O)ccc43)nn2)[C@]2(C)N=C(/C(C)=C3N=C(/C=C4N=C1[C@@H](CCC(N)=O)C\4(C)C)[C@@H](CCC(N)=O)[C@]\3(C)CC(N)=O)[C@@H](CCC(N)=O)[C@]2(C)CC(N)=O.[C-]#N.[Co+3]` [Cbl-FAM], for which the Fold fluorescence turn-on in data set [4] came out at 0.5x; with RNA AT, 2.5x.

`CC1=N/C(=C\c2cc(F)c(O)c(F)c2)C(=O)N1CC(F)(F)F` [DFHBI-1T]: in the data set on Broccoli, the “fluorescence remaining after photobleaching” value is reported as below 20%. In the data set on ACTB-(2xdBroccoli) mRNA, the “cells with Halo-G3BP1 labeled SGs where no corresponding SGs in the green Broccoli channel were detectable” value amounted to 90%, the “total SGs detected in the green Broccoli channel” value is listed as 4% and the “transfected cells in which at least one SG was detected in the green channel” value is reported as 10%.

On to `COc1ccc(C[C@H](N)C(=O)N[C@H]2[C@@H](O)[C@H](n3cnc4c(N(C)C)ncnc43)O[C@@H]2CO)cc1` [Puromycin], for which the “protein signal at translation sites” value in data set [5] (Puromycin added to cells with co-moving translation spots) is on record as “rapid disappearance of the protein signal”. In data set [5] (after Puromycin treatment, 50 μg/mL), the “mRNA spots colocalized with protein signal” value is 30±12%.
